Patent US6689773B2, “Uracil substituted phenyl sulfamoyl carboxamides” (BASF Aktiengesellschaft, priority 2000, dated 2004)

Legend:
Type in all cases: in vivo
[1] = test system: XANST, Cocklebur, Xanthium strumariam; assay: Postemergence herbicidal evaluation (Example 147); details: rating scale 0-9, two to three weeks after treatment
Outline: (§1)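 ~2-wk seedlings; spray 40 psi; 0.016–0.032 kg/ha a.i. in acetone/water 80/20 + 1.0% methylated seed oil; greenhouse; rated 0–9 visually at 2–3 wk; multiple tests averaged.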

[2] = test system: ECHCG, Barnyardgrass, Echinochloa crusgalli, (L.)Beau; assay: Postemergence herbicidal evaluation (Example 147); details: rating scale 0-9, two to three weeks after treatment
Outline: as §1

[3] = test system: IPOHE, Morningglory, Ivyleaf, Ipomoea hederacea, (L)Jacq.; assay: Postemergence herbicidal evaluation (Example 147); details: rating scale 0-9, two to three weeks after treatment
Outline: as §1

[4] = test system: SETVI, Green foxtail, Setaria viridis, (L.)Beau; assay: Postemergence herbicidal evaluation (Example 147); details: rating scale 0-9, two to three weeks after treatment
Outline: as §1

[5] = test system: ZEAMX, Field corn, Zea mays L.; assay: Postemergence herbicidal evaluation (Example 147); details: rating scale 0-9, two to three weeks after treatment
Outline: as §1

[6] = test system: ALOMY, Blackgrass, Alopecurus myosuroides; assay: Postemergence herbicidal evaluation (Example 147); details: rating scale 0-9, two to three weeks after treatment
Outline: as §1

[7] = test system: ABUTH, Velvetleaf, Abutilon theophrasti, Medic.; assay: Postemergence herbicidal evaluation (Example 147); details: rating scale 0-9, two to three weeks after treatment
Outline: as §1

[8] = test system: DIGSA, Crabgrass, (Hairy) L, Digitaria sanguinalis, (L)Scop; assay: Postemergence herbicidal evaluation (Example 147); details: rating scale 0-9, two to three weeks after treatment
Outline: as §1

[9] = test system: GLXMA, Soybean, Glycine max, (L.) Merr.; assay: Postemergence herbicidal evaluation (Example 147); details: rating scale 0-9, two to three weeks after treatment
Outline: as §1

[10] = test system: CHEAL, Lambsquarters, Chenopodium album, L. Common; assay: Postemergence herbicidal evaluation (Example 147); details: rating scale 0-9, two to three weeks after treatment
Outline: as §1

[11] = test system: TRZAW, Winter wheat, Tritium Aestivum, L. (Winter); assay: Postemergence herbicidal evaluation (Example 147); details: rating scale 0-9, two to three weeks after treatment
Outline: as §1

[12] = test system: AMBEL, Ragweed, Common, Ambrosia artemiisifolia, L.; assay: Postemergence herbicidal evaluation (Example 147); details: rating scale 0-9, two to three weeks after treatment
Outline: as §1

[13] = test system: XANST, Cocklebur, Xanthium strumariam; assay: Preemergence herbicidal evaluation (Example 148); details: rating scale 0-9, two to four weeks after treatment
Outline: (§2)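 Each species was planted separately in cups, its seed mixed into potting soil over roughly an inch of soil. Spraying with compound in aqueous acetone followed planting (~0.125–0.250 kg/ha). Overall appearance, chlorosis and stand were compared with a control after 2–4 weeks.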

[14] = test system: ECHCG, Barnyardgrass, Echinochloa crusgalli, (L.)Beau; assay: Preemergence herbicidal evaluation (Example 148); details: rating scale 0-9, two to four weeks after treatment
Outline: as §2

[15] = test system: IPOHE, Morningglory, Ivyleaf, Ipomoea hederacea, (L)Jacq.; assay: Preemergence herbicidal evaluation (Example 148); details: rating scale 0-9, two to four weeks after treatment
Outline: as §2

[16] = test system: SETVI, Green foxtail, Setaria viridis, (L.)Beau; assay: Preemergence herbicidal evaluation (Example 148); details: rating scale 0-9, two to four weeks after treatment
Outline: as §2

[17] = test system: ZEAMX, Field corn, Zea mays L.; assay: Preemergence herbicidal evaluation (Example 148); details: rating scale 0-9, two to four weeks after treatment
Outline: as §2

[18] = test system: ALOMY, Blackgrass, Alopecurus myosuroides; assay: Preemergence herbicidal evaluation (Example 148); details: rating scale 0-9, two to four weeks after treatment
Outline: as §2

[19] = test system: ABUTH, Velvetleaf, Abutilon theophrasti, Medic.; assay: Preemergence herbicidal evaluation (Example 148); details: rating scale 0-9, two to four weeks after treatment
Outline: as §2

[20] = test system: DIGSA, Crabgrass, (Hairy) L, Digitaria sanguinalis, (L)Scop; assay: Preemergence herbicidal evaluation (Example 148); details: rating scale 0-9, two to four weeks after treatment
Outline: as §2

[21] = test system: GLXMA, Soybean, Glycine max, (L.) Merr.; assay: Preemergence herbicidal evaluation (Example 148); details: rating scale 0-9, two to four weeks after treatment
Outline: as §2

[22] = test system: CHEAL, Lambsquarters, Chenopodium album, L. Common; assay: Preemergence herbicidal evaluation (Example 148); details: rating scale 0-9, two to four weeks after treatment
Outline: as §2

[23] = test system: TRZAW, Winter wheat, Tritium Aestivum, L. (Winter); assay: Preemergence herbicidal evaluation (Example 148); details: rating scale 0-9, two to four weeks after treatment
Outline: as §2

[24] = test system: AMBEL, Ragweed, Common, Ambrosia artemiisifolia, L.; assay: Preemergence herbicidal evaluation (Example 148); details: rating scale 0-9, two to four weeks after treatment
Outline: as §2

## CCCCN(C)S(=O)(=O)NC(=O)c1cc(-n2c(=O)cc(C(F)(F)F)n(C)c2=O)c(F)cc1Cl [Example 83]
[1]; rate 0.016 kg/ha
  Postemergence herbicidal rating XANST: 9.0
[1]; rate 0.032 kg/ha
  Postemergence herbicidal rating XANST: 9.0
[2]; rate 0.016 kg/ha
  Postemergence herbicidal rating ECHCG: 8.0
[2]; rate 0.032 kg/ha
  Postemergence herbicidal rating ECHCG: 8.0
[3]; rate 0.016 kg/ha
  Postemergence herbicidal rating IPOHE: 8.0
[3]; rate 0.032 kg/ha
  Postemergence herbicidal rating IPOHE: 9.0
[4]; rate 0.016 kg/ha
  Postemergence herbicidal rating SETVI: 7.0
[4]; rate 0.032 kg/ha
  Postemergence herbicidal rating SETVI: 8.0
[5]; rate 0.016 kg/ha
  Postemergence herbicidal rating ZEAMX: 5.5
[5]; rate 0.032 kg/ha
  Postemergence herbicidal rating ZEAMX: 6.0
[6]; rate 0.016 kg/ha
  Postemergence herbicidal rating ALMOY: 0.0
[6]; rate 0.032 kg/ha
  Postemergence herbicidal rating ALMOY: 1.0
[7]; rate 0.016 kg/ha
  Postemergence herbicidal rating ABUTH: 9.0
[7]; rate 0.032 kg/ha
  Postemergence herbicidal rating ABUTH: 9.0
[8]; rate 0.016 kg/ha
  Postemergence herbicidal rating DIGSA: 3.0
[8]; rate 0.032 kg/ha
  Postemergence herbicidal rating DIGSA: 4.0
[9]; rate 0.016 kg/ha
  Postemergence herbicidal rating GLXMA: 7.0
[9]; rate 0.032 kg/ha
  Postemergence herbicidal rating GLXMA: 7.5
[10]; rate 0.016 kg/ha
  Postemergence herbicidal rating CHEAL: 5.0
[10]; rate 0.032 kg/ha
  Postemergence herbicidal rating CHEAL: 5.0
[11]; rate 0.016 kg/ha
  Postemergence herbicidal rating TRZAW: 4.5
[11]; rate 0.032 kg/ha
  Postemergence herbicidal rating TRZAW: 5.5
[12]; rate 0.016 kg/ha
  Postemergence herbicidal rating AMBEL: 6.0
[12]; rate 0.032 kg/ha
  Postemergence herbicidal rating AMBEL: 8.0
[13]; rate 0.125 kg/ha
  Preemergence herbicidal rating XANST: 4.0
[13]; rate 0.25 kg/ha
  Preemergence herbicidal rating XANST: 5.0
[14]; rate 0.125 kg/ha
  Preemergence herbicidal rating ECHCG: 4.0
[14]; rate 0.25 kg/ha
  Preemergence herbicidal rating ECHCG: 5.0
[15]; rate 0.125 kg/ha
  Preemergence herbicidal rating IPOHE: 7.0
[15]; rate 0.25 kg/ha
  Preemergence herbicidal rating IPOHE: 8.0
[16]; rate 0.125 kg/ha
  Preemergence herbicidal rating SETVI: 3.0
[16]; rate 0.25 kg/ha
  Preemergence herbicidal rating SETVI: 6.0
[17]; rate 0.125 kg/ha
  Preemergence herbicidal rating ZEAMX: 0.0
[17]; rate 0.25 kg/ha
  Preemergence herbicidal rating ZEAMX: 2.0
[18]; rate 0.125 kg/ha
  Preemergence herbicidal rating ALMOY: 0.0
[18]; rate 0.25 kg/ha
  Preemergence herbicidal rating ALMOY: 0.0
[19]; rate 0.125 kg/ha
  Preemergence herbicidal rating ABUTH: 8.0
[19]; rate 0.25 kg/ha
  Preemergence herbicidal rating ABUTH: 9.0
[20]; rate 0.125 kg/ha
  Preemergence herbicidal rating DIGSA: 1.0
[20]; rate 0.25 kg/ha
  Preemergence herbicidal rating DIGSA: 9.0
[21]; rate 0.125 kg/ha
  Preemergence herbicidal rating GLXMA: 1.0
[21]; rate 0.25 kg/ha
  Preemergence herbicidal rating GLXMA: 4.0
[22]; rate 0.125 kg/ha
  Preemergence herbicidal rating CHEAL: 9.0
[22]; rate 0.25 kg/ha
  Preemergence herbicidal rating CHEAL: 9.0
[23]; rate 0.125 kg/ha
  Preemergence herbicidal rating TRZAW: 0.0
[23]; rate 0.25 kg/ha
  Preemergence herbicidal rating TRZAW: 0.0
[24]; rate 0.125 kg/ha
  Preemergence herbicidal rating AMBEL: 8.0
[24]; rate 0.25 kg/ha
  Preemergence herbicidal rating AMBEL: 8.0

## C=CCN(C)S(=O)(=O)NC(=O)c1cc(-n2c(=O)cc(C(F)(F)F)n(C)c2=O)c(F)cc1Cl [Example 59]
[1]; rate 0.016 kg/ha
  Postemergence herbicidal rating XANST: 9.0
[1]; rate 0.032 kg/ha
  Postemergence herbicidal rating XANST: 9.0
[2]; rate 0.016 kg/ha
  Postemergence herbicidal rating ECHCG: 6.0
[2]; rate 0.032 kg/ha
  Postemergence herbicidal rating ECHCG: 7.0
[3]; rate 0.016 kg/ha
  Postemergence herbicidal rating IPOHE: 9.0
[3]; rate 0.032 kg/ha
  Postemergence herbicidal rating IPOHE: 9.0
[4]; rate 0.016 kg/ha
  Postemergence herbicidal rating SETVI: 7.0
[4]; rate 0.032 kg/ha
  Postemergence herbicidal rating SETVI: 8.0
[5]; rate 0.016 kg/ha
  Postemergence herbicidal rating ZEAMX: 8.0
[5]; rate 0.032 kg/ha
  Postemergence herbicidal rating ZEAMX: 8.0
[6]; rate 0.016 kg/ha
  Postemergence herbicidal rating ALMOY: 3.0
[6]; rate 0.032 kg/ha
  Postemergence herbicidal rating ALMOY: 4.0
[7]; rate 0.016 kg/ha
  Postemergence herbicidal rating ABUTH: 9.0
[7]; rate 0.032 kg/ha
  Postemergence herbicidal rating ABUTH: 9.0
[8]; rate 0.016 kg/ha
  Postemergence herbicidal rating DIGSA: 4.0
[8]; rate 0.032 kg/ha
  Postemergence herbicidal rating DIGSA: 5.0
[9]; rate 0.016 kg/ha
  Postemergence herbicidal rating GLXMA: 8.0
[9]; rate 0.032 kg/ha
  Postemergence herbicidal rating GLXMA: 8.5
[10]; rate 0.016 kg/ha
  Postemergence herbicidal rating CHEAL: 7.0
[10]; rate 0.032 kg/ha
  Postemergence herbicidal rating CHEAL: 8.0
[11]; rate 0.016 kg/ha
  Postemergence herbicidal rating TRZAW: 4.0
[11]; rate 0.032 kg/ha
  Postemergence herbicidal rating TRZAW: 4.5
[12]; rate 0.016 kg/ha
  Postemergence herbicidal rating AMBEL: 7.0
[12]; rate 0.032 kg/ha
  Postemergence herbicidal rating AMBEL: 9.0
[13]; rate 0.125 kg/ha
  Preemergence herbicidal rating XANST: 0.0
[13]; rate 0.25 kg/ha
  Preemergence herbicidal rating XANST: 9.0
[14]; rate 0.125 kg/ha
  Preemergence herbicidal rating ECHCG: 0.0
[14]; rate 0.25 kg/ha
  Preemergence herbicidal rating ECHCG: 3.0
[15]; rate 0.125 kg/ha
  Preemergence herbicidal rating IPOHE: 9.0
[15]; rate 0.25 kg/ha
  Preemergence herbicidal rating IPOHE: 9.0
[16]; rate 0.125 kg/ha
  Preemergence herbicidal rating SETVI: 4.0
[16]; rate 0.25 kg/ha
  Preemergence herbicidal rating SETVI: 9.0
[17]; rate 0.125 kg/ha
  Preemergence herbicidal rating ZEAMX: 0.0
[17]; rate 0.25 kg/ha
  Preemergence herbicidal rating ZEAMX: 2.0
[18]; rate 0.125 kg/ha
  Preemergence herbicidal rating ALMOY: 0.0
[18]; rate 0.25 kg/ha
  Preemergence herbicidal rating ALMOY: 4.0
[19]; rate 0.125 kg/ha
  Preemergence herbicidal rating ABUTH: 9.0
[19]; rate 0.25 kg/ha
  Preemergence herbicidal rating ABUTH: 9.0
[20]; rate 0.125 kg/ha
  Preemergence herbicidal rating DIGSA: 3.0
[20]; rate 0.25 kg/ha
  Preemergence herbicidal rating DIGSA: 7.0
[21]; rate 0.125 kg/ha
  Preemergence herbicidal rating GLXMA: 2.0
[21]; rate 0.25 kg/ha
  Preemergence herbicidal rating GLXMA: 8.0
[22]; rate 0.125 kg/ha
  Preemergence herbicidal rating CHEAL: 9.0
[22]; rate 0.25 kg/ha
  Preemergence herbicidal rating CHEAL: 9.0
[23]; rate 0.125 kg/ha
  Preemergence herbicidal rating TRZAW: 0.0
[23]; rate 0.25 kg/ha
  Preemergence herbicidal rating TRZAW: 0.0
[24]; rate 0.125 kg/ha
  Preemergence herbicidal rating AMBEL: 9.0
[24]; rate 0.25 kg/ha
  Preemergence herbicidal rating AMBEL: 9.0
